Measurements as given in PMC3119515 (Bioorganic & medicinal chemistry, 2011).

Experiments:
fire-fly luciferase = fire-fly luciferase (Photinus pyralis, UniProt P08659, K549A/L550V/N119G/N50D/S548I); assay: Direct luciferase inhibition assay; assay type: cell-based; conditions: cells transfected with luciferase-pcDNA3; data not shown
[1] = In vitro hydrolytic stability assay utilizing rat plasma
[2] = test system: Yellow Fever Virus (YF-IRES-Luc); assay: microbe, parasite or virus in culture; assay type: cell-based
uninfected BHK cells = assay type: cell-based, hamster

fire-fly luciferase, sequence (P08659 whole entry N50D/N119G/S548I/K549A/L550V): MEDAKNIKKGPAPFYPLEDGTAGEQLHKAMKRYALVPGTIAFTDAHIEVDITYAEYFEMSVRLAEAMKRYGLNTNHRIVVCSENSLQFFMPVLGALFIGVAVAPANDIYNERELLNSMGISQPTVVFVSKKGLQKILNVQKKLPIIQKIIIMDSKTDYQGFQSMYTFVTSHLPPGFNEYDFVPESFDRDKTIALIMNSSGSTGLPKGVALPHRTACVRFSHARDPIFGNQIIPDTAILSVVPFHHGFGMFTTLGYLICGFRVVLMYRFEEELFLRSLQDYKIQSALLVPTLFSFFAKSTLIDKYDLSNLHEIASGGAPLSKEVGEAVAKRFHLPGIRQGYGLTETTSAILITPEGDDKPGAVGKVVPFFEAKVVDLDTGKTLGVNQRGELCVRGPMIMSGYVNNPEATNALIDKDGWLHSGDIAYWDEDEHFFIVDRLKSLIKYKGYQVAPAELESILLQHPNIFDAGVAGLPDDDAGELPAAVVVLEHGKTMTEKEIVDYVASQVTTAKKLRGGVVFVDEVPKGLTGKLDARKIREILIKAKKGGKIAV

For CCCCc1ccc(-c2nc(C)c(/C(C)=N/NC(=N)N)s2)cc1 [Compound 12, 2-(1-(2-(4-Butylphenyl)-4-methylthiazol-5-yl)ethylidene)hydrazinecarboximidamide], which “reduction of luciferase activity” value (fire-fly luciferase) is on record?
Its value is “No reduction of luciferase activity was observed”.

And the “half-life, times higher than the lead compound 2” value [1]?
The value was “around 6 times”.

With COC(=O)c1sc(Cc2ccccc2)nc1C [Compound 5o] as the compound, how does the “antiflaviviral activity (in words)” value [2] read?
The value was “inactive”.

For COC(=O)c1sc(-c2ccc(C(C)(C)C)cc2)nc1C [Compound 5l], which “antiflaviviral activity (in words)” value [2] is on record?
The value was “inactive”.

With COC(=O)c1sc(-c2ccccc2)nc1C(Br)Br [Compound 6a, Methyl 4-(Dibromomethyl)-2-phenylthiazole-5-carboxylate] as the compound, how does the “antiflaviviral activity (in words)” value [2] read?
Its value is “very weak antiflaviviral inhibitory activity”.

Which “antiflaviviral activity (in words)” value [2] does the source give for CCCCc1ccc(-c2nc(C)c(C(=O)O)s2)cc1 [Compound 8, 2-(4-Butylphenyl)-4-methylthiazole-5-carboxylic Acid] here?
Its value is “inactive”.

For COC(=O)c1sc(-c2ccc(Cl)c(Cl)c2)nc1C(Br)Br [Compound 6j, Methyl 4-(Dibromomethyl)-2-(3,4-dichlorophenyl)thiazole-5-carboxylate], which inhibition at 50 µM ([2]; Yellow fever virus, BHK, read-out: % Inhibition (reduction in luciferase activity)) is on record?
The inhibition at 50 µM was less than 50%.

Which “antiflaviviral activity (in words)” value [2] does the source give for COC(=O)c1sc(-c2cccc(Br)c2)nc1C(Br)Br [Compound 6c, Methyl 2-(3-Bromophenyl)-4-(dibromomethyl)thiazole-5-carboxylate] here?
Its value is “weak activity”.

Which EC50 [2] does the source give for “Methyl 4-Methyl-2-(naphthalen-2-yl)thiazole-5-carboxylate [Compound 5k]” here?
The EC50 was 35.7 ± 22.7 µM.

What about the “% Inhibition (reduction in luciferase activity)” value ([2]; 50 µM) of the same compound?
The value was 78.4%.

And the GI50 (uninfected BHK cells)?
The GI50 was 434 ± 23.3 µM.
